Source: US9625449B2, “Determining the bioavailability of zinc (II) ions” (Colgate-Palmolive Company, priority 2014, dated 2017)

Tests used:
Format in all cases: physicochemical
[1] = Reaction of zincon with metal ions (colour change): Mg2+; details: solution with Mg^2+
Text: (§1) Certain dyes used to detect zinc ions also react with other metal ions. For example, Eriochrome Black T reacts with Mg^2+ and Ca^2+ ions, which are commonly encountered in biological tissues. Sources of calcium ions are frequently included in oral care compositions.

[2] = Reaction of zincon with metal ions (colour change): Ca2+; details: solution with Ca^2+
Text: as §1

[3] = Reaction of zincon with metal ions (colour change): Fe2+; details: solution with Fe^2+
Text: as §1

[4] = Reaction of zincon with metal ions (colour change): Co2+; details: solution with Co^2+
Text: as §1

[5] = Reaction of zincon with metal ions (colour change): Cu2+; details: solution with Cu^2+
Text: as §1

[6] = Reaction of zincon with metal ions (colour change): Zn2+; details: solution with Zn^2+
Text: as §1

[7] = Absorbance of zincon as function of pH (detection of zinc)
Text: It has been reported in the literature that the working pH range for zincon is pH 8.5 to 9.5 (Yoe and Rush, 1952. “A new colorimetric reagent for zinc”, Analytica Chimica Acta, vol. 6, pp 526 to 527).

In the case of `O=C(O)c1ccccc1N=NC(=NNc1cc(S(=O)(=O)[O-])ccc1O)c1ccccc1.[Na+]` [zincon, o-[α-(2-hydroxy-5-sulfophenylazo)-benzylidene hydrazino]benzoic acid], the “colour change of zincon” value [1] is reported as “did not undergo a colour change”, the “colour change of zincon” value [2] is reported as “did not undergo a colour change” and the “colour change of zincon” value [3] is reported as “green solution”. For the same compound, the “colour change of zincon” value [4] was “sky blue solution”, the “colour change of zincon” value [5] was “difficult to distinguish from that of Zn^2+” and the “colour change of zincon” value [6] was “deep blue complex”. The “Absorbance of sample at 610 nm” value ([7]; pH 7.0) was 0.233, the “Absorbance of sample at 610 nm” value ([7]; pH 7.5) was 0.232 and the “Absorbance of sample at 610 nm” value ([7]; pH 8.0) was 0.245. For the same compound, the “Absorbance of sample at 610 nm” value ([7]; pH 8.5) was 0.251 and the “Absorbance of sample at 610 nm” value ([7]; pH 9.5) was 0.252.
